According to ChEMBL document CHEMBL3885881, “DrugMatrix”:

Species on record: Rattus norvegicus
Experiment: DrugMatrix - Regimen: Daily Repeat
Format: toxicity, organism-based, Sprague-Dawley
Parameters: regimen Daily Repeat, gender Male, age 6-8 weeks
Conditions: in vivo, po, 201 mg/kg, route oral GAVAGE, dose level High, vehicle .5 % CMC; for ABSOLUTE BASOPHIL / ABSOLUTE EOSINOPHIL / ABSOLUTE LYMPHOCYTE / ABSOLUTE MONOCYTE / ABSOLUTE SEGMENTED NEUTROPHIL / BASOPHIL / EOSINOPHIL / ERYTHROCYTE COUNT / HEMATOCRIT / HEMOGLOBIN / LEUKOCYTE COUNT / LYMPHOCYTE / MEAN CORPUSCULAR HEMOGLOBIN / MEAN CORPUSCULAR HEMOGLOBIN CONCENTRATION / MEAN CORPUSCULAR VOLUME / MONOCYTE / NEUTROPHIL / NUCLEATED RED BLOOD CELLS / PLATELET COUNT: tissue Blood; for ALANINE AMINOTRANSFERASE / ALBUMIN / ALKALINE PHOSPHATASE / ASPARTATE AMINOTRANSFERASE / BLOOD UREA NITROGEN / CARBON DIOXIDE / CHLORIDE / CHOLESTEROL / CREATINE PHOSPHOKINASE / CREATININE / GLUCOSE / LACTATE DEHYDROGENASE / LIPASE / PHOSPHORUS / POTASSIUM / SODIUM / TOTAL BILIRUBIN / TOTAL PROTEIN / URIC ACID: tissue Plasma

CCCCCCNC(=O)n1cc(F)c(=O)[nH]c1=O [CARMOFUR]
ABSOLUTE BASOPHIL (72 h, time 3 day): 0 CELLS/uL | ABSOLUTE EOSINOPHIL (72 h, time 3 day): 0 CELLS/uL | ABSOLUTE LYMPHOCYTE (72 h, time 3 day): 13152.33 CELLS/uL | ABSOLUTE MONOCYTE (72 h, time 3 day): 146.67 CELLS/uL | ABSOLUTE SEGMENTED NEUTROPHIL (72 h, time 3 day): 901 CELLS/uL | BASOPHIL (72 h, time 3 day): 0% | EOSINOPHIL (72 h, time 3 day): 0% | ERYTHROCYTE COUNT (72 h, time 3 day): 5.67 x10E6/uL | HEMATOCRIT (72 h, time 3 day): 35.7% | HEMOGLOBIN (72 h, time 3 day): 14.47 G/DL | LEUKOCYTE COUNT (72 h, time 3 day): 14.2 x10E3/uL | LYMPHOCYTE (72 h, time 3 day): 92.67% | MEAN CORPUSCULAR HEMOGLOBIN (72 h, time 3 day): 25.5 pg | MEAN CORPUSCULAR HEMOGLOBIN CONCENTRATION (72 h, time 3 day): 40.53 G/DL | MEAN CORPUSCULAR VOLUME (72 h, time 3 day): 62.97 fL | MONOCYTE (72 h, time 3 day): 1% | NEUTROPHIL (72 h, time 3 day): 6.33% | NUCLEATED RED BLOOD CELLS (72 h, time 3 day): 0 /100WBC | PLATELET COUNT (72 h, time 3 day): 1275.33 x10E3/uL | ALANINE AMINOTRANSFERASE (72 h, time 3 day): 52.67 u/L | ALBUMIN (72 h, time 3 day): 4.37 G/DL | ALKALINE PHOSPHATASE (72 h, time 3 day): 367 u/L | ASPARTATE AMINOTRANSFERASE (72 h, time 3 day): 69 u/L | BLOOD UREA NITROGEN (72 h, time 3 day): 23.33 mg/dL | CARBON DIOXIDE (72 h, time 3 day): 21 mmol/L | CHLORIDE (72 h, time 3 day): 102.33 MEQ/L | CHOLESTEROL (72 h, time 3 day): 81 mg/dL | CREATINE PHOSPHOKINASE (72 h, time 3 day): 192.67 u/L | CREATININE (72 h, time 3 day): 0.27 mg/dL | GLUCOSE (72 h, time 3 day): 160 mg/dL | LACTATE DEHYDROGENASE (72 h, time 3 day): 198.33 u/L | LIPASE (72 h, time 3 day): 9.33 u/L | PHOSPHORUS (72 h, time 3 day): 12 mg/dL | POTASSIUM (72 h, time 3 day): 6.3 MEQ/L | SODIUM (72 h, time 3 day): 145.27 MEQ/L | TOTAL BILIRUBIN (72 h, time 3 day): 0.17 mg/dL | TOTAL PROTEIN (72 h, time 3 day): 6.33 G/DL | URIC ACID (72 h, time 3 day): 1.77 mg/dL | ABSOLUTE BASOPHIL (120 h, time 5 day): 0 CELLS/uL | ABSOLUTE EOSINOPHIL (120 h, time 5 day): 0 CELLS/uL | ABSOLUTE LYMPHOCYTE (120 h, time 5 day): 4570 CELLS/uL | ABSOLUTE MONOCYTE (120 h, time 5 day): 201.5 CELLS/uL | ABSOLUTE SEGMENTED NEUTROPHIL (120 h, time 5 day): 2778.5 CELLS/uL | BASOPHIL (120 h, time 5 day): 0% | EOSINOPHIL (120 h, time 5 day): 0% | ERYTHROCYTE COUNT (120 h, time 5 day): 8.62 x10E6/uL | HEMATOCRIT (120 h, time 5 day): 52.2% | HEMOGLOBIN (120 h, time 5 day): 20.65 G/DL | LEUKOCYTE COUNT (120 h, time 5 day): 7.55 x10E3/uL | LYMPHOCYTE (120 h, time 5 day): 62.5% | MEAN CORPUSCULAR HEMOGLOBIN (120 h, time 5 day): 24 pg | MEAN CORPUSCULAR HEMOGLOBIN CONCENTRATION (120 h, time 5 day): 39.6 G/DL | MEAN CORPUSCULAR VOLUME (120 h, time 5 day): 60.55 fL | MONOCYTE (120 h, time 5 day): 2.5% | NEUTROPHIL (120 h, time 5 day): 35% | NUCLEATED RED BLOOD CELLS (120 h, time 5 day): 0 /100WBC | PLATELET COUNT (120 h, time 5 day): 1522.5 x10E3/uL | ALANINE AMINOTRANSFERASE (120 h, time 5 day): 43.5 u/L | ALBUMIN (120 h, time 5 day): 5.05 G/DL | ALKALINE PHOSPHATASE (120 h, time 5 day): 216 u/L | ASPARTATE AMINOTRANSFERASE (120 h, time 5 day): 414 u/L | BLOOD UREA NITROGEN (120 h, time 5 day): 219.5 mg/dL | CARBON DIOXIDE (120 h, time 5 day): 19 mmol/L | CHLORIDE (120 h, time 5 day): 115 MEQ/L | CHOLESTEROL (120 h, time 5 day): 78.5 mg/dL | CREATINE PHOSPHOKINASE (120 h, time 5 day): 2230 u/L | CREATININE (120 h, time 5 day): 0.29 mg/dL | GLUCOSE (120 h, time 5 day): 164 mg/dL | LACTATE DEHYDROGENASE (120 h, time 5 day): 1956 u/L | LIPASE (120 h, time 5 day): 24.5 u/L | PHOSPHORUS (120 h, time 5 day): 20.35 mg/dL | POTASSIUM (120 h, time 5 day): 5.82 MEQ/L | SODIUM (120 h, time 5 day): 154.1 MEQ/L | TOTAL BILIRUBIN (120 h, time 5 day): 0.6 mg/dL | TOTAL PROTEIN (120 h, time 5 day): 6.6 G/DL | URIC ACID (120 h, time 5 day): 4.25 mg/dL
